# Measurements as given in ChEMBL document CHEMBL4118264, “Selective synthesis of 7-O-substituted luteolin derivatives and their melanonenesis and proliferation inhibitory activity in B16 melanoma cells” (2018).
# Columns and labels:
# Type in all cases: functional
# [1] = tested on: B16; assay: Antiproliferative activity against mouse B16 cells assessed as cell proliferation level at 25 uM after 72 hrs by MTT assay relative to control
# [2] = tested on: B16; assay: Inhibition of melanogenesis in mouse B16 cells assessed as intracellular melanogenesis activity at 6.25 uM after 72 hrs relative to control; parameters: scale not given: the % may be the effect or the level left
# [3] = tested on: B16; assay: Inhibition of melanogenesis in mouse B16 cells assessed as extracellular melanogenesis activity at 25 uM after 72 hrs relative to control; parameters: scale not given: the % may be the effect or the level left
# [4] = tested on: B16; assay: Antiproliferative activity against mouse B16 cells assessed as cell proliferation level at 50 uM after 72 hrs by MTT assay relative to control
# [5] = tested on: B16; assay: Antiproliferative activity against mouse B16 cells assessed as cell proliferation level at 6.25 uM after 72 hrs by MTT assay relative to control
# [6] = tested on: B16; assay: Inhibition of melanogenesis in mouse B16 cells assessed as intracellular melanogenesis activity at 25 uM after 72 hrs relative to control; parameters: scale not given: the % may be the effect or the level left
# [7] = tested on: B16; assay: Inhibition of melanogenesis in mouse B16 cells assessed as intracellular melanogenesis activity at 12.5 uM after 72 hrs relative to control; parameters: scale not given: the % may be the effect or the level left
# [8] = tested on: B16; assay: Inhibition of melanogenesis in mouse B16 cells assessed as intracellular melanogenesis activity at 50 uM after 72 hrs relative to control; parameters: scale not given: the % may be the effect or the level left
# [9] = tested on: B16; assay: Antiproliferative activity against mouse B16 cells assessed as cell proliferation level at 12.5 uM after 72 hrs by MTT assay relative to control
# [10] = tested on: B16; assay: Inhibition of melanogenesis in mouse B16 cells assessed as extracellular melanogenesis activity at 6.25 uM after 72 hrs relative to control; parameters: scale not given: the % may be the effect or the level left
# [11] = tested on: B16; assay: Inhibition of melanogenesis in mouse B16 cells assessed as extracellular melanogenesis activity at 50 uM after 72 hrs relative to control; parameters: scale not given: the % may be the effect or the level left
# [12] = tested on: B16; assay: Inhibition of melanogenesis in mouse B16 cells assessed as extracellular melanogenesis activity at 12.5 uM after 72 hrs relative to control; parameters: scale not given: the % may be the effect or the level left
# [13] = tested on: B16; assay: Inhibition of melanogenesis in mouse B16 cells assessed as extracellular melanogenesis activity at 730 uM after 72 hrs relative to control; parameters: scale not given: the % may be the effect or the level left
# [14] = tested on: B16; assay: Inhibition of melanogenesis in mouse B16 cells assessed as intracellular melanogenesis activity at 730 uM after 72 hrs relative to control; parameters: scale not given: the % may be the effect or the level left
# [15] = tested on: B16; assay: Antiproliferative activity against mouse B16 cells assessed as cell proliferation level at 730 uM after 72 hrs by MTT assay relative to control
Structure (SMILES),Activity [1] [%],Activity [2] [%],Activity [3] [%],Activity [4] [%],Activity [5] [%],Activity [6] [%],Activity [7] [%],Activity [8] [%],Activity [9] [%],Activity [10] [%],Activity [11] [%],Activity [12] [%],Activity [13] [%],Activity [14] [%],Activity [15] [%]
COc1cc(O)c2c(=O)cc(-c3ccc(O)c(O)c3)oc2c1,55,108,14,41,98,50,87,50,85,107,16,51,,,
OC[C@H]1O[C@@H](Oc2ccc(O)cc2)[C@H](O)[C@@H](O)[C@@H]1O [ARBUTIN],,,,,,,,,,,,,45,89,105
O=c1cc(-c2ccc(O)c(O)c2)oc2cc(O)cc(O)c12 [LUTEOLIN],68,122,15,34,106,66,118,55,110,114,16,109,,,
